In patent EP2628479A1, “Cosmetic use of climbazol” (Henkel AG&Co. KGAA, priority 2011, dated 2013):

Tested on: Co-Kultur-System
Assay: Collagen neosynthesis in co-culture system (2D fibroblast culture with 3D epidermis model insert), P1 NP secreted into the medium
Type: cell-based
Details: unbehandelt = 107
Source text: Zum Nachweis der Kollagen-Neusynthese wurde ein Co-Kultur-System verwendet, das aus einer zweidimensionalen Fibroblasten-Kultur besteht, auf die in einem Insert ein dreidimensionales Epidermismodell aufgesetzt wurde. Über das Nährmedium kann ein Stoffaustausch zwischen den Fibroblasten und den Keratinocyten des Epidermismodells erfolgen.
Als Kontrollen für die Syntheseinduktion wurden Retinsäure und Retinol eingesetzt.

SMILES: CC(C)(C)C(=O)C(Oc1ccc(Cl)cc1)n1ccnc1 (stereo not drawn) [Climbazol, Imidazolyl-1-(4-chlorophenoxy)-3,3-dimethylbutane-2-one]
- P1 NP (Climbazol 0,005%): 135 µg/mL

SMILES: CC1=C(/C=C/C(C)=C/C=C/C(C)=C/CO)C(C)(C)CCC1 [Retinol]
- P1 NP (Retinol 5µM): 146 µg/mL

SMILES: CC1=C(/C=C/C(C)=C/C=C/C(C)=C/C(=O)O)C(C)(C)CCC1 [Retinsäure]
- P1 NP (Retinsäure 5µM): 200 µg/mL
